Assay results as given in patent US20230233591A1, “METHOD FOR TREATING […]” (priority 2020, published 2023).
Structures can show the parent of a compound that is named as a salt.

What was measured:
[1] = test system: CPXV; experiment: microbe, parasite or virus in culture; assay type: cell-based
[2] = in vitro; conditions: African green monkey
[3] = test system: CPXV; experiment: microbe, parasite or virus in culture; assay type: cell-based; conditions: Cowpox virus, Vero C1008, 24 h
[4] = test system: VACV; experiment: microbe, parasite or virus in culture; assay type: cell-based; conditions: Orthopoxvirus vaccinia, Huh-7, 24 h
[5] = test system: VACV; experiment: microbe, parasite or virus in culture; assay type: cell-based; conditions: Orthopoxvirus vaccinia, Vero C1008, 24 h
[6] = in vitro; conditions: human

SMILES	IC50 ([1]; Cowpox virus, Huh-7, 24 h)	CC50 [2]	IC50 [3]	IC50 [4]	IC50 [5]	CC50 [6]	IC50 ([1]; hydrochloride)
NC(=O)c1cn([C@@H]2O[C@H](CO)[C@@H](O)[C@H]2O)c2ncnc(N)c12 [Oya1, 4-amino-7-((2R,3R,4S,5R)-3,4-dihydroxy-5-(hydroxymethyl)tetrahydrofuran-2-yl)-7H-pyrrolo[2,3-d]pyrimidine-5-carboxamide]	220 ± 10 nM	> 600 nM	200 ± 10 nM	50 ± 10 nM	20 ± 10 nM	> 600 nM	
NC(=O)c1cn([C@@H]2O[C@H](CO)[C@@H](O)[C@H]2O)c2ncnc(N)c12 [Oya2, 4-amino-7-((2R,3R,4S,5R)-3,4-dihydroxy-5-(hydroxymethyl)tetrahydrofuran-2-yl)-7H-pyrrolo[2,3-d]pyrimidine-5-carboxamide hydrochloride]							240 ± 10 nM
